Active and inactive are the calls of the source. The rule behind the calls is not given here.
Assays:
[1] = tested on: Calu-3; assay: Cytotoxicity against human Calu3 cells incubated for 72 hrs by MTT assay; format: functional, cell-based; conditions: Calu-3, 72 h
[2] = molecular target: Macrophage-stimulating protein receptor (Homo sapiens, UniProt Q04912); assay: Inhibition of human recombinant MST1R by radiometric kinase assay
[3] = Cytotoxicity against human HCC827 cells incubated for 72 hrs by MTT assay; format: functional, cell-based; conditions: HCC827, 72 h
[4] = tested on: PC-9; assay: Cytotoxicity against human PC9 cells incubated for 72 hrs by MTT assay; format: functional, cell-based; conditions: PC-9, 72 h
[5] = Half life in Sprague-Dawley rat at 20 mg/kg, po; format: ADME, organism-based; parameters: dose 20 mg/kg, route oral; conditions: in vivo
[6] = AUC (0 to 24 hrs) in Sprague-Dawley rat at 20 mg/kg, po; format: ADME, organism-based; parameters: time < 24 hr, dose 20 mg/kg, route oral; conditions: plasma
[7] = molecular target: Receptor tyrosine-protein kinase erbB-2 (Homo sapiens, UniProt P04626); assay: Inhibition of human recombinant ERBB2 by radiometric kinase assay
Sequence of Receptor tyrosine-protein kinase erbB-2 (P04626 whole entry): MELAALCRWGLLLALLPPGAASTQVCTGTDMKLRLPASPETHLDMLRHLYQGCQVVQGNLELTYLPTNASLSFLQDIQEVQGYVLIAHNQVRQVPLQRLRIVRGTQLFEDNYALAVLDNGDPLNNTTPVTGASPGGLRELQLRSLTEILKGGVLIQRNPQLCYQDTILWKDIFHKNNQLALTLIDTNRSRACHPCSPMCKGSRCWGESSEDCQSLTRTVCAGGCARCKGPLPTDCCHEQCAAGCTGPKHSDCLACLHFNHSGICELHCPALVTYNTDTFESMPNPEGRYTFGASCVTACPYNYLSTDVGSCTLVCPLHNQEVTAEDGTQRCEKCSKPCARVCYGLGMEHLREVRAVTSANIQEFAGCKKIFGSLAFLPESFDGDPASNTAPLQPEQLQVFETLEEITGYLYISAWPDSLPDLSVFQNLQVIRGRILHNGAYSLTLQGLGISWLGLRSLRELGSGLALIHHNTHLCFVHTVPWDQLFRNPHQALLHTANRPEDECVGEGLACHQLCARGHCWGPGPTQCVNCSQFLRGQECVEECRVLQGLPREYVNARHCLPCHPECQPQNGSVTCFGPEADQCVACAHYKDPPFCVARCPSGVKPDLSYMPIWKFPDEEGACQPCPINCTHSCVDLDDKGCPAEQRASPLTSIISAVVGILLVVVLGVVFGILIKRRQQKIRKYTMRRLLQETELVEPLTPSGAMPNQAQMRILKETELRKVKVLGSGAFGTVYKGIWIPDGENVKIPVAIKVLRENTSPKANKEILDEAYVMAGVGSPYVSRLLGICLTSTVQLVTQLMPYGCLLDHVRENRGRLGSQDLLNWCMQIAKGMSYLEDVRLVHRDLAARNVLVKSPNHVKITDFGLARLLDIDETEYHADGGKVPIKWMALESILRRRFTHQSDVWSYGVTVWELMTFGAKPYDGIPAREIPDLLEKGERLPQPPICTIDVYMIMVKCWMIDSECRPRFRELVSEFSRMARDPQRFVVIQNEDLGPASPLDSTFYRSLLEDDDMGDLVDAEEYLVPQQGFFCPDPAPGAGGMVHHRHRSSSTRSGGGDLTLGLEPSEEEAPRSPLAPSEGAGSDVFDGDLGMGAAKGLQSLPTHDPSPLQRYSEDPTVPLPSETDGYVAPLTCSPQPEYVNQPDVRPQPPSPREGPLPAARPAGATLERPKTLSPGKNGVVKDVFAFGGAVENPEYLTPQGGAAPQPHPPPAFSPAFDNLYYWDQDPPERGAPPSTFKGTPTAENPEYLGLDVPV

[8] = molecular target: Insulin-like growth factor 1 receptor (Homo sapiens, UniProt P08069); assay: Inhibition of human recombinant IGF1R by radiometric kinase assay
[9] = Binding affinity to […] EGFR 747-E749del, A750P mutant by KINOMEscan kinase binding assay
[10] = tested on: HCT-116; assay: Cytotoxicity against human HCT116 cells incubated for 72 hrs by MTT assay; format: functional, cell-based; conditions: HCT-116, 72 h
[11] = molecular target: Serine/threonine-protein kinase N1 (Homo sapiens, UniProt Q16512); assay: Inhibition of human recombinant PKN1 by radiometric kinase assay
[12] = molecular target: Cyclin-dependent kinase 2 (Homo sapiens, UniProt P24941); assay: Inhibition of human recombinant CDK2 by radiometric kinase assay
[13] = molecular target: MAP kinase-interacting serine/threonine-protein kinase 2 (Homo sapiens, UniProt Q9HBH9); assay: Inhibition of human recombinant MNK2 by radiometric kinase assay
[14] = molecular target: Mitogen-activated protein kinase 1 (Homo sapiens, UniProt P28482); assay: Inhibition of human recombinant ERK2 by radiometric kinase assay
[15] = molecular target: Protein kinase C alpha type (Homo sapiens, UniProt P17252); assay: Inhibition of human recombinant PKCalpha by radiometric kinase assay
[16] = molecular target: Serine/threonine-protein kinase WNK1 (Homo sapiens, UniProt Q9H4A3); assay: Inhibition of human recombinant WNK1 by radiometric kinase assay
Sequence of Serine/threonine-protein kinase WNK1 (Q9H4A3 whole entry): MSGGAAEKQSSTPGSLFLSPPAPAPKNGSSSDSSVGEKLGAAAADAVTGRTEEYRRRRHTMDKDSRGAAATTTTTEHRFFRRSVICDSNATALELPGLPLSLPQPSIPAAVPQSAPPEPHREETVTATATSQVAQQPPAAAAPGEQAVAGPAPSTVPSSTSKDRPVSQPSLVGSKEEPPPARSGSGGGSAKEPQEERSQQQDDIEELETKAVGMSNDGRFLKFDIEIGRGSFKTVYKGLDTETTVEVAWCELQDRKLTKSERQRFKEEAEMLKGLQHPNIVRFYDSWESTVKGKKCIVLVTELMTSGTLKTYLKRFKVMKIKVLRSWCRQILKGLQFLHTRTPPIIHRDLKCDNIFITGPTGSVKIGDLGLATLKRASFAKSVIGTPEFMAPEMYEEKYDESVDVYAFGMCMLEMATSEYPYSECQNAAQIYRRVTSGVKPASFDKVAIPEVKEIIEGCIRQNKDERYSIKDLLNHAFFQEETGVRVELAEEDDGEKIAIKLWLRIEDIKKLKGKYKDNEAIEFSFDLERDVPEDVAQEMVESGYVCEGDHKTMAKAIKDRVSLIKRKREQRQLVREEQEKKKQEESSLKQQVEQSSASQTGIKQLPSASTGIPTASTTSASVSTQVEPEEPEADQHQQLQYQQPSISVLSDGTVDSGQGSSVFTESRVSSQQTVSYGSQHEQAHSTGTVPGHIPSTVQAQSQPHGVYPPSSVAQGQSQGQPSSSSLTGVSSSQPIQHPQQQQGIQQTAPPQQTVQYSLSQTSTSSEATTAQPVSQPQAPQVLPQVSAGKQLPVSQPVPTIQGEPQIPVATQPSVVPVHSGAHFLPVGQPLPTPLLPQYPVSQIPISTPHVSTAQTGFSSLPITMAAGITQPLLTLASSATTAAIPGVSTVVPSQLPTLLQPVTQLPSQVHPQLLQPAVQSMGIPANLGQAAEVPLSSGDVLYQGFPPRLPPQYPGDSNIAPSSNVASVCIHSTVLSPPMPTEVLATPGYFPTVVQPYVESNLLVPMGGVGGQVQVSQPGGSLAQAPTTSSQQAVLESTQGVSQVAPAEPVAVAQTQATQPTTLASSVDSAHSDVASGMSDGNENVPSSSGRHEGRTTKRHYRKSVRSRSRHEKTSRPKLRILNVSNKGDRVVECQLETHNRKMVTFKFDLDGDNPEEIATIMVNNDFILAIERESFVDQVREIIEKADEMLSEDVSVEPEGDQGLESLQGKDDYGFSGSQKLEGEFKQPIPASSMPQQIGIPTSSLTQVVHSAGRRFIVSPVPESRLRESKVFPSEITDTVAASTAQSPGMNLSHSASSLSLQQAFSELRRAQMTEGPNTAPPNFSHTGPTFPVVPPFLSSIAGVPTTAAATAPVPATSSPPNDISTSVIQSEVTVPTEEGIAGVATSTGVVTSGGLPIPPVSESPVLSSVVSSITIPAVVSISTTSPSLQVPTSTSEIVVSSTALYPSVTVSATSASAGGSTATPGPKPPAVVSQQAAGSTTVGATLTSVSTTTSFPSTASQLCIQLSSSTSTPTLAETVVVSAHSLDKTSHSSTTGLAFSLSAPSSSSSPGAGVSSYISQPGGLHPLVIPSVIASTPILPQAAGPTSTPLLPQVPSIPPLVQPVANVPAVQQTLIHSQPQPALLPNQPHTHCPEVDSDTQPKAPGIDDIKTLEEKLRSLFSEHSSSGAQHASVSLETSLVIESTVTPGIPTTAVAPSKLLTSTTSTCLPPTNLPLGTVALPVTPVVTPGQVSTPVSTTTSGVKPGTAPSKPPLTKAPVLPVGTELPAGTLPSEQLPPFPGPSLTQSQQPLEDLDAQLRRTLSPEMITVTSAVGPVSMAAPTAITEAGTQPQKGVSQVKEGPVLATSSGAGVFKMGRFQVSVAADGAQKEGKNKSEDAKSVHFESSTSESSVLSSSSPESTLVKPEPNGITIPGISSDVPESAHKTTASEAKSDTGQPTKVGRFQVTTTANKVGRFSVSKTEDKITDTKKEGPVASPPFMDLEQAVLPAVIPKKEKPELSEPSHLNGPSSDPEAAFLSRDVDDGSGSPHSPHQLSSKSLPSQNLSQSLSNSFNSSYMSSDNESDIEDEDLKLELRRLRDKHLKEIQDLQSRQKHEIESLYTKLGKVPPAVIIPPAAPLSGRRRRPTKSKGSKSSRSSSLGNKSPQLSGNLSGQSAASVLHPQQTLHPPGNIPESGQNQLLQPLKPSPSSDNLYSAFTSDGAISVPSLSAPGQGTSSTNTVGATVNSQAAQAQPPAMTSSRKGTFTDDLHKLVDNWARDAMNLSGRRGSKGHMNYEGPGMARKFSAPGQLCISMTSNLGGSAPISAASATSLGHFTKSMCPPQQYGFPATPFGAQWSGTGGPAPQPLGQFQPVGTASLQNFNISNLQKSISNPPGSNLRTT

[17] = tested on: NCI-H1975; assay: Cytotoxicity against human NCI-H1975 cells incubated for 72 hrs by MTT assay; format: functional, cell-based; conditions: NCI-H1975, 72 h
[18] = molecular target: Tyrosine-protein kinase JAK2 (Homo sapiens, UniProt O60674); assay: Inhibition of human recombinant JAK2 by radiometric kinase assay
[19] = Inhibition of human recombinant S6K by radiometric kinase assay
[20] = molecular target: Glycogen synthase kinase-3 beta (Homo sapiens, UniProt P49841); assay: Inhibition of human recombinant GSK3beta by radiometric kinase assay
[21] = tested on: NCI-H1975; assay: Antitumor activity against human NCI-H1975 cells xenografted in BALB/c mouse assessed as reduction in Ki67 expression at 50 mg/kg/day, po for 10 days by immunohistochemistry; format: functional, organism-based
[22] = molecular target: MAP kinase-interacting serine/threonine-protein kinase 1 (Homo sapiens, UniProt Q9BUB5); assay: Inhibition of human recombinant MNK1 by radiometric kinase assay
Sequence of MAP kinase-interacting serine/threonine-protein kinase 1 (Q9BUB5 whole entry): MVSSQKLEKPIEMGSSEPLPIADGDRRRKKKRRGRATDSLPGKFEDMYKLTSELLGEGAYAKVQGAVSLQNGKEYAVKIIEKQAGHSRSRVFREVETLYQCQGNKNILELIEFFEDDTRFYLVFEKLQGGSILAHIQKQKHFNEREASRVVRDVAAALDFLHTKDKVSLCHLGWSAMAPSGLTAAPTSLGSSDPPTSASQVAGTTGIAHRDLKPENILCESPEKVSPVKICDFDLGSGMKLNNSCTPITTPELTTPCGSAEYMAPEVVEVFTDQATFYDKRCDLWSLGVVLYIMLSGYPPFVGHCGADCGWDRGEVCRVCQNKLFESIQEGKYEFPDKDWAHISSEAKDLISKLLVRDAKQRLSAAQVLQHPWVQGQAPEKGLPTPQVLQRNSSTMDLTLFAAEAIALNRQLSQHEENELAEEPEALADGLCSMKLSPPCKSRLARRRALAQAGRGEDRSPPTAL

CN1CCN(c2ccc(Nc3ncc4nc(Nc5ccccc5)n(C5CCCC5)c4n3)cc2)CC1
IC50 [1]: 0.12 µM | IC50 [2]: > 10 µM | IC50 [3]: < 0.01 nM | IC50 [4]: 0.00022 µM | half-life [5]: 4.86 h | AUC(0-t) at 24 h [6]: 2140 ng·h/mL | IC50 [7]: 0.06 µM | IC50 [8]: > 10 µM | Kd [9]: 0.0004 µM | IC50 [10]: 3 µM | IC50 [11]: 6.1 µM | IC50 [12]: > 10 µM | IC50 [13]: 3.2 µM | IC50 [14]: > 10 µM | IC50 [15]: 6.7 µM | IC50 [16]: > 10 µM | IC50 [17]: 0.36 µM | IC50 [18]: 1.2 µM | IC50 [19]: 9.4 µM | IC50 [20]: > 10 µM | Activity [21]: Active | IC50 [22]: 6.7 µM
